Results from paper PMC6597265 (ACS chemical neuroscience, 2019).
Like-named read-outs stand apart in the source and are kept apart here.

How the values were obtained:
native KA receptors [1] = test: Binding affinity at native KA receptors, [3H]-KA, rat cortical synaptosomes; conditions: native iGluRs; for IC50 KA: mean of at least three experiments
[2] = molecular target: recombinant rat homomeric GluK3 (Rattus norvegicus, UniProt P42264); test: Binding affinity at cloned homomeric GluK3 expressed in sf9 cells, [3H]-KA; conditions: for GluK1/K3 (GluK1/GluK3 Ki selectivity ratio): ratio of Ki values at cloned homomeric receptors
[3] = molecular target: recombinant rat homomeric GluK1 (Rattus norvegicus, UniProt P22756); test: Binding affinity at cloned homomeric GluK1 expressed in sf9 cells, [3H]-NF608
human EAAT3 = molecular target: T1, human EAAT3 (Homo sapiens, UniProt P43005); test: [3H]-D-Asp uptake assay, EAAT3 stably expressed in HEK293 cells; format: cell-based
T1 sequence (P43005 1-524): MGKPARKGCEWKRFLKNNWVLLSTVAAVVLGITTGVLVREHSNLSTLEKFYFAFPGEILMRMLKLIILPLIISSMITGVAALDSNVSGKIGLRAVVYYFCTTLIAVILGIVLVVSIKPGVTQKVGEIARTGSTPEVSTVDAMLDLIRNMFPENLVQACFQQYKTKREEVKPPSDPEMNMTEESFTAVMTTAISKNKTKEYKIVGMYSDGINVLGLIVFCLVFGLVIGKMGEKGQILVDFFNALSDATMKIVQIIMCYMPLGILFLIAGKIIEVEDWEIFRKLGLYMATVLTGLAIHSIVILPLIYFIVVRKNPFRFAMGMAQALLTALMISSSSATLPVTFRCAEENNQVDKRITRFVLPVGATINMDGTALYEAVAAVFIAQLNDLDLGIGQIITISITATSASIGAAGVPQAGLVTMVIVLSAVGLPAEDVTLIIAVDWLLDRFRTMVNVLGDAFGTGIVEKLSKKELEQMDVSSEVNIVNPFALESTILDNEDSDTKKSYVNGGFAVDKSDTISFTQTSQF

human EAAT2 = human EAAT2 (Homo sapiens, UniProt P43004); test: [3H]-D-Asp uptake assay, EAAT2 stably expressed in HEK293 cells; format: cell-based
native NMDA receptors [4] = format: binding; conditions: native iGluRs, rat synaptosomes
[5] = molecular target: recombinant rat homomeric GluK2 (Rattus norvegicus, UniProt P42260); test: Binding affinity at cloned homomeric GluK2 expressed in sf9 cells, [3H]-KA
human EAAT1 = human EAAT1 (Homo sapiens, UniProt P43003); test: [3H]-D-Asp uptake assay, EAAT1 stably expressed in HEK293 cells; format: cell-based
native KA receptors [6] = conditions: cited from earlier work
native AMPA receptors = conditions: read-out: IC50 AMPA; cited from earlier work
native NMDA receptors [7] = conditions: read-out: Ki NMDA; cited from earlier work
[8] = Ki GluK3, cloned homomeric receptor, mean ± SEM, at least three experiments
[9] = IC50 EAAT1, HEK293 cells, [3H]-D-Asp uptake

Chain of human EAAT1 (P43003 whole entry): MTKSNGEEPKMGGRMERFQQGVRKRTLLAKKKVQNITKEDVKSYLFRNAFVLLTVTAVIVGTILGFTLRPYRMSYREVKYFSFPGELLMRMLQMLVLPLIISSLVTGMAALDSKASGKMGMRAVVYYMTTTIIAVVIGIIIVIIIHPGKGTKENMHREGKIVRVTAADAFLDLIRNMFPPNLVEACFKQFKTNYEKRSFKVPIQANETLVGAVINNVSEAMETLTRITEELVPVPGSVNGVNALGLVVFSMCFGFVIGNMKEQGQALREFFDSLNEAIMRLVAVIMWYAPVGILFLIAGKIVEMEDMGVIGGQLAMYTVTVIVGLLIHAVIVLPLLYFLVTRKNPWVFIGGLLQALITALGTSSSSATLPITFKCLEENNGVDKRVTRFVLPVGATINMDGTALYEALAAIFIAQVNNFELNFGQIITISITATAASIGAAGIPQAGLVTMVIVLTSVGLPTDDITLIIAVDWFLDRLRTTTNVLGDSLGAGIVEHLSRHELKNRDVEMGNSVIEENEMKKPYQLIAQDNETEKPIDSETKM
Chain of recombinant rat homomeric GluK1 (P22756 31-949): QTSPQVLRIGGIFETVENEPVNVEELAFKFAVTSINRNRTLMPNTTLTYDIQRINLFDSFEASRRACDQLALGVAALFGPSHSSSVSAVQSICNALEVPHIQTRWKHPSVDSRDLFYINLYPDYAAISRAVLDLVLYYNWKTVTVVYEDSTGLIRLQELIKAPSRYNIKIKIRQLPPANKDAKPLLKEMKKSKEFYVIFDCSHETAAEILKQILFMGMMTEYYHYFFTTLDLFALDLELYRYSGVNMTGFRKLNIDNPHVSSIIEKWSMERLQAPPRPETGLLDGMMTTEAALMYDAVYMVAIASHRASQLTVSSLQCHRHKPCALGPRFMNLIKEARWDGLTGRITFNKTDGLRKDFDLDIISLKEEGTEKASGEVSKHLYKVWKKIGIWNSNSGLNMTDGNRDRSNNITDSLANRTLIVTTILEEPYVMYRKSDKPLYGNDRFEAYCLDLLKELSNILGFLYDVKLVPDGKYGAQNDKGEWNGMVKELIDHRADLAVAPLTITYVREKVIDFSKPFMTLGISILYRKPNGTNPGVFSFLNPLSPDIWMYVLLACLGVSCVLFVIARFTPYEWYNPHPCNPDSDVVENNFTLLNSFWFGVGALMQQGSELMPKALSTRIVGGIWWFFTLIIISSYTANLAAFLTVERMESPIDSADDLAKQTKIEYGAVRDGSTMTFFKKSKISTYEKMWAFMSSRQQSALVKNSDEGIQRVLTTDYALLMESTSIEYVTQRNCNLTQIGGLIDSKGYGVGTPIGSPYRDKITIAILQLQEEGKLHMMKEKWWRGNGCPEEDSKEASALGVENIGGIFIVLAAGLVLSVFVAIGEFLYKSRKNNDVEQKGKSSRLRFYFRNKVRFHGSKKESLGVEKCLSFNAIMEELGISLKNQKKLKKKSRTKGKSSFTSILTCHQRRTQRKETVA
Chain of recombinant rat homomeric GluK3 (P42264 32-919): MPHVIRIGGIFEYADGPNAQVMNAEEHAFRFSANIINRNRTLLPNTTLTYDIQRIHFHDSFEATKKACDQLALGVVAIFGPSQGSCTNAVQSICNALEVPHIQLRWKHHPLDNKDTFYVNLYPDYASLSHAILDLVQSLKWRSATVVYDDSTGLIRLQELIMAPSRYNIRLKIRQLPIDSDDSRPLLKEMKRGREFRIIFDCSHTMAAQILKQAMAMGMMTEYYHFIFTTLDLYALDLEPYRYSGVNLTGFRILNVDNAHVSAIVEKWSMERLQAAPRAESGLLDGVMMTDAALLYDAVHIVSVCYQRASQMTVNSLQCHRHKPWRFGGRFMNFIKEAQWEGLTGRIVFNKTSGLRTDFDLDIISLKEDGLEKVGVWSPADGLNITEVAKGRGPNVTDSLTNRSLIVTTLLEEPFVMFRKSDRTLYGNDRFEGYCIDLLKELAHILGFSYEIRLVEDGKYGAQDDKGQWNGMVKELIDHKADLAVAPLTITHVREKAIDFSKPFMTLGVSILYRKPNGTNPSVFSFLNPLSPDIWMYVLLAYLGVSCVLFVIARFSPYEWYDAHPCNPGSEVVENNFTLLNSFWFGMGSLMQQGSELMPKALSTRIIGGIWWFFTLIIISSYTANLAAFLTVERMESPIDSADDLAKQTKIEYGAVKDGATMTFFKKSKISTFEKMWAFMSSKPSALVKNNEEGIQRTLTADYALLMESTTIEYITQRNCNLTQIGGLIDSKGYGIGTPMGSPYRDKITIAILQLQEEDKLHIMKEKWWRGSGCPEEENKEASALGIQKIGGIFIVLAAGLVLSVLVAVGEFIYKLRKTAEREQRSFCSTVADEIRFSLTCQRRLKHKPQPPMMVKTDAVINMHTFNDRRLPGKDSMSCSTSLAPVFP
Chain of human EAAT2 (P43004 whole entry): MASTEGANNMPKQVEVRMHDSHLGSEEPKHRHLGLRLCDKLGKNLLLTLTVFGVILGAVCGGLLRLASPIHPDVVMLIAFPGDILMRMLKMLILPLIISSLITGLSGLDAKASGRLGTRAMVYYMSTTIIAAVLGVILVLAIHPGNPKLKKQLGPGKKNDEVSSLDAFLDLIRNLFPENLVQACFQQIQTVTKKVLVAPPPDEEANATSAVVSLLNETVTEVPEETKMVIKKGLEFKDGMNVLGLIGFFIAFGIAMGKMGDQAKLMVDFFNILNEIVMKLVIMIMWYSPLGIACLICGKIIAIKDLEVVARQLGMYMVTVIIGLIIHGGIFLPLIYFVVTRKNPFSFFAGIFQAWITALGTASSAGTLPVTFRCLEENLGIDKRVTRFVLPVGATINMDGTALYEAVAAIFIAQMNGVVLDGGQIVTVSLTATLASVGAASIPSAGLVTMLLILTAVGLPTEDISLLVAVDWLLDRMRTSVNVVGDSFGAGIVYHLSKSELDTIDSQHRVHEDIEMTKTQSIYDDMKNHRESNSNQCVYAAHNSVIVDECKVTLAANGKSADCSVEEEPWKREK
Chain of recombinant rat homomeric GluK2 (P42260 32-908): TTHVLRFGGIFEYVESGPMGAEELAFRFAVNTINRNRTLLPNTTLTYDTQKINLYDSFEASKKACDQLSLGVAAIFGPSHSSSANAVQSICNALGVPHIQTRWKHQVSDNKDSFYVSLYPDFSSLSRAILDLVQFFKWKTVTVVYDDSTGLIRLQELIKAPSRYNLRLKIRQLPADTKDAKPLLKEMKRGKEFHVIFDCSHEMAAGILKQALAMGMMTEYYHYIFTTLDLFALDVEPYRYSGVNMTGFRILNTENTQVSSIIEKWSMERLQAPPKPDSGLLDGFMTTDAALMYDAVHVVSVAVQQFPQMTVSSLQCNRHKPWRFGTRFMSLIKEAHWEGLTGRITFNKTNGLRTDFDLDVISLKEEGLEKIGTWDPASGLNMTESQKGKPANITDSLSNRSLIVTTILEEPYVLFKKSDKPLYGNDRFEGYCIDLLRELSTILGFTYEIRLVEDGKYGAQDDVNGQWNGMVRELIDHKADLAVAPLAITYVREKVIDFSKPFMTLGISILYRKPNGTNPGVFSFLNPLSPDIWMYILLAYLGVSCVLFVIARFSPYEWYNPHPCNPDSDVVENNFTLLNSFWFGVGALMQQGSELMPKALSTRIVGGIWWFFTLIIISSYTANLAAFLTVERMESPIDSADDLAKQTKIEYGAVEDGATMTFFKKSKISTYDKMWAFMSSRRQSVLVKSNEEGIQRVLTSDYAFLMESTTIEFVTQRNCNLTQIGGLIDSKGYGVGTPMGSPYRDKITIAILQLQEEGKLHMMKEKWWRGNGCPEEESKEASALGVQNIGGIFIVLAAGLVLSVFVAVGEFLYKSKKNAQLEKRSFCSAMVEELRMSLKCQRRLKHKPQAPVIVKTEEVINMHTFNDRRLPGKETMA

Row | SMILES | IC50 KA (native KA receptors [1]) | Ki [3] | IC50 (human EAAT3) | IC50 (human EAAT2) | Ki ([5]; Ki GluK2) | IC50 (human EAAT1; IC50 EAAT1) | Ki [2, 8] | also measured
1 | CC[C@H](C(=O)O)[C@H]1CCN[C@@H]1C(=O)O.Cl [3c-s1, (2S,3R)-3-((S)-1-Carboxypropyl)pyrrolidine-2-carboxylic Acid Hydrochloride] | >100 µM | 18 ± 3.8 µM | ~50 µM | ~30 µM |  |  |  | Ki [2]: 11 ± 2.4 µM; GluK1/K3 (GluK1/GluK3 Ki selectivity ratio) [2]: 2; pKi NMDA (mean ± SEM, in brackets) (native NMDA receptors [4]): 4.88 ± 0.02; Ki [5]: > 100 µM; IC50 (human EAAT1): ~100 µM
2 | Cl.O=C(O)[C@H]1NCC[C@@H]1[C@@H](C(=O)O)c1ccccc1 [3d-s1, (2S,3R)-3-((R)-Carboxy(phenyl)methyl)pyrrolidine-2-carboxylic Acid Hydrochloride] | >100 µM | > 100 µM | > 300 µM | ~50 µM | > 100 µM | > 300 µM |  | Ki ([2]; Ki GluK3): > 100 µM
3 | O=C([O-])C(CCO)[C@@H]1CCN[C@H]1C(=O)[O-].[Na+].[Na+] (relative stereo) [3n, Disodium trans-3-(1-Carboxylato-3-hydroxypropyl)pyrrolidine-2-carboxylate] |  | > 100 µM | > 300 µM | > 300 µM |  |  | 52 ± 3 µM | GluK1/K3 (GluK1/GluK3 Ki selectivity ratio) [2]: >2; pKi NMDA (mean ± SEM, in brackets) (native NMDA receptors [4]): 4.23 ± 0.06; Ki ([5]; Ki GluK2, cloned homomeric receptor, mean ± SEM, at least three experiments): > 100 µM; IC50 (human EAAT1; [9]): > 300 µM
4 | COC(C(=O)O)[C@@H]1CCN[C@H]1C(=O)O.Cl (relative stereo) [3j-d1, trans-3-(Carboxy(methoxy)methyl)pyrrolidine-2-carboxylic Acid Hydrochloride] | >100 µM | > 100 µM | > 1000 µM | ~300 µM |  |  |  | Ki [2]: 82 ± 11.2 µM; Ki [5]: > 100 µM; IC50 (human EAAT1): > 1000 µM
5 | Cl.O=C(O)[C@H]1NCC[C@@H]1[C@H](C(=O)O)c1ccccc1 [3d-s2, (2S,3R)-3-((S)-Carboxy(phenyl)methyl)pyrrolidine-2-carboxylic Acid Hydrochloride] | >100 µM | > 100 µM | > 300 µM | > 300 µM | > 100 µM | > 300 µM |  | Ki ([2]; Ki GluK3): > 100 µM
6 | Cl.O=C(O)C(Cc1c[nH]nn1)[C@@H]1CCN[C@H]1C(=O)O (stereo partly drawn) [3p-d1, trans-3-(1-Carboxy-2-(1H-1,2,3-triazol-4-yl)ethyl)pyrrolidine-2-carboxylic Acid Hydrochloride] | >100 µM | ~100 µM | > 300 µM | > 300 µM | > 100 µM | > 300 µM | 6.6 ± 0.09 µM | 
7 | Cl.O=C(O)C(Cc1c[nH]nn1)[C@@H]1CCN[C@H]1C(=O)O (stereo partly drawn) [3p-d2, trans-3-(1-Carboxy-2-(1H-1,2,3-triazol-4-yl)ethyl)pyrrolidine-2-carboxylic Acid Hydrochloride] | 58 µM |  |  |  | 43 ± 5.2 µM |  | 2.7 ± 0.32 µM | pIC50 KA (mean ± SEM, in brackets) (native KA receptors [1]): 4.24 ± 0.01; pKi NMDA (mean ± SEM, in brackets) (native NMDA receptors [4]): 4.30 ± 0.03
8 | Cl.O=C(O)C(Cc1ccccc1)[C@@H]1CCN[C@H]1C(=O)O (relative stereo) [3g, trans-3-(1-Carboxy-2-phenylethyl)pyrrolidine-2-carboxylic Acid Hydrochloride] | 71 µM | 46 ± 2.2 µM |  | 20 µM | 67 ± 4.6 µM |  | 5.4 ± 0.42 µM | pIC50 KA (mean ± SEM, in brackets) (native KA receptors [1]): 4.15 ± 0.04; GluK1/K3 (GluK1/GluK3 Ki selectivity ratio) [2]: 9; IC50 (human EAAT1; [9]): 34 µM; selectivity for EAAT1 and EAAT2 over EAAT3 (human EAAT1; from IC50 values): 10 fold; IC50 (human EAAT1; pIC50 EAAT1 (mean ± SEM, in brackets), HEK293 cells, [3H]-D-Asp uptake): 34.7 µM
9 | Cl.O=C(O)C(Cc1c[nH]nn1)[C@@H]1CCN[C@H]1C(=O)O (mixture of isomers) [3p, trans-3-(1-Carboxy-2-(1H-1,2,3-triazol-4-yl)ethyl)pyrrolidine-2-carboxylic Acid Hydrochloride] | 59 µM | 14 ± 2 µM | > 300 µM | > 300 µM | 55 ± 9 µM | > 300 µM | 3.1 ± 0.14 µM | pIC50 KA (mean ± SEM, in brackets) (native KA receptors [1]): 4.23 ± 0.03; GluK1/K3 (GluK1/GluK3 Ki selectivity ratio) [2]: 5
10 | CCCC(C(=O)O)[C@@H]1CCN[C@H]1C(=O)O.Cl (relative stereo) [3e, trans-3-(1-Carboxybutyl)pyrrolidine-2-carboxylic Acid Hydrochloride] | >100 µM |  |  |  |  |  |  | 
11 | CC[C@@H](C(=O)O)[C@H]1CCN[C@@H]1C(=O)O.Cl [3c-s2, (2S,3R)-3-((R)-1-Carboxypropyl)pyrrolidine-2-carboxylic Acid Hydrochloride] | >100 µM | 41 ± 14 µM | > 300 µM | > 300 µM |  |  |  | Ki [2]: 6.3 ± 1.3 µM; GluK1/K3 (GluK1/GluK3 Ki selectivity ratio) [2]: 7; Ki [5]: 70 ± 14 µM; IC50 (human EAAT1): > 300 µM
12 | Cl.O=C(O)CC(C(=O)O)[C@@H]1CCN[C@H]1C(=O)O (relative stereo) [3l, trans-2-(2-Carboxypyrrolidin-3-yl)succinic Acid Hydrochloride] | 23 µM | 2 ± 0.16 µM | > 1000 µM | > 1000 µM | 33 ± 1.1 µM | > 1000 µM | 6.4 ± 1.2 µM | pIC50 KA (mean ± SEM, in brackets) (native KA receptors [1]): 4.63 ± 0.02; pKi NMDA (mean ± SEM, in brackets) (native NMDA receptors [4]): 5.58 ± 0.03
13 | Cl.O=C(O)C(CCc1ccccc1)[C@@H]1CCN[C@H]1C(=O)O (relative stereo) [3h, trans-3-(1-Carboxy-3-phenylpropyl)pyrrolidine-2-carboxylic Acid Hydrochloride] | >100 µM | > 100 µM | > 300 µM | > 300 µM | > 100 µM | > 300 µM | 86 ± 7.3 µM | 
14 | Cc1onc(O)c1CC(N)C(=O)O (stereo not drawn) [AMPA, α-amino-3-hydroxy-5-methyl-4-isoxazolepropionic acid, reference compound] |  |  |  |  |  |  |  | GluK1/GluK3 [2]: 0.03; GluK2/GluK3 [2]: >23
15 | CC(C)C(C(=O)O)[C@@H]1CCN[C@H]1C(=O)O.Cl (relative stereo) [3f, trans-3-(1-Carboxy-2-methylpropyl)pyrrolidine-2-carboxylic Acid Hydrochloride] | >100 µM | > 100 µM | 35.5 µM | 15.8 µM | > 100 µM | 45 µM | > 100 µM | IC50 (human EAAT1; pIC50 EAAT1 (mean ± SEM, in brackets)): 45.7 µM
16 | Cl.O=C(O)CCC(C(=O)O)[C@@H]1CCN[C@H]1C(=O)O (relative stereo) [3m, trans-2-(2-Carboxypyrrolidin-3-yl)pentanedioic Acid Hydrochloride] | >100 µM | > 100 µM | > 300 µM | > 300 µM | > 100 µM | > 300 µM | > 100 µM | pKi NMDA (mean ± SEM, in brackets) (native NMDA receptors [4]): 4.28 ± 0.01
17 | Cl.O=C(O)C(CCCO)[C@@H]1CCN[C@H]1C(=O)O (relative stereo) [3o, trans-3-(1-Carboxy-4-hydroxybutyl)pyrrolidine-2-carboxylic Acid Hydrochloride] | >100 µM | > 100 µM | > 300 µM | > 300 µM | > 100 µM | > 300 µM | > 100 µM | 
18 | CN[C@H](CC(=O)O)C(=O)O [NMDA, N-methyl-D-aspartate, reference compound] |  |  |  |  |  |  |  | IC50 KA (native KA receptors [6]): >100 µM; IC50 (native AMPA receptors): > 100 µM; Ki (native NMDA receptors [7]): 35 µM
